Results published in the Kinase Knowledgebase extract (Sharma et al. 2016).
pIC50: −log10 of the molar value.

Target: ROCK2 (human) (UniProt O75116)
Assay: Inhibition of ROCK2 Kinase Activity

Sequence of ROCK2 (human) (O75116 whole entry, looked up): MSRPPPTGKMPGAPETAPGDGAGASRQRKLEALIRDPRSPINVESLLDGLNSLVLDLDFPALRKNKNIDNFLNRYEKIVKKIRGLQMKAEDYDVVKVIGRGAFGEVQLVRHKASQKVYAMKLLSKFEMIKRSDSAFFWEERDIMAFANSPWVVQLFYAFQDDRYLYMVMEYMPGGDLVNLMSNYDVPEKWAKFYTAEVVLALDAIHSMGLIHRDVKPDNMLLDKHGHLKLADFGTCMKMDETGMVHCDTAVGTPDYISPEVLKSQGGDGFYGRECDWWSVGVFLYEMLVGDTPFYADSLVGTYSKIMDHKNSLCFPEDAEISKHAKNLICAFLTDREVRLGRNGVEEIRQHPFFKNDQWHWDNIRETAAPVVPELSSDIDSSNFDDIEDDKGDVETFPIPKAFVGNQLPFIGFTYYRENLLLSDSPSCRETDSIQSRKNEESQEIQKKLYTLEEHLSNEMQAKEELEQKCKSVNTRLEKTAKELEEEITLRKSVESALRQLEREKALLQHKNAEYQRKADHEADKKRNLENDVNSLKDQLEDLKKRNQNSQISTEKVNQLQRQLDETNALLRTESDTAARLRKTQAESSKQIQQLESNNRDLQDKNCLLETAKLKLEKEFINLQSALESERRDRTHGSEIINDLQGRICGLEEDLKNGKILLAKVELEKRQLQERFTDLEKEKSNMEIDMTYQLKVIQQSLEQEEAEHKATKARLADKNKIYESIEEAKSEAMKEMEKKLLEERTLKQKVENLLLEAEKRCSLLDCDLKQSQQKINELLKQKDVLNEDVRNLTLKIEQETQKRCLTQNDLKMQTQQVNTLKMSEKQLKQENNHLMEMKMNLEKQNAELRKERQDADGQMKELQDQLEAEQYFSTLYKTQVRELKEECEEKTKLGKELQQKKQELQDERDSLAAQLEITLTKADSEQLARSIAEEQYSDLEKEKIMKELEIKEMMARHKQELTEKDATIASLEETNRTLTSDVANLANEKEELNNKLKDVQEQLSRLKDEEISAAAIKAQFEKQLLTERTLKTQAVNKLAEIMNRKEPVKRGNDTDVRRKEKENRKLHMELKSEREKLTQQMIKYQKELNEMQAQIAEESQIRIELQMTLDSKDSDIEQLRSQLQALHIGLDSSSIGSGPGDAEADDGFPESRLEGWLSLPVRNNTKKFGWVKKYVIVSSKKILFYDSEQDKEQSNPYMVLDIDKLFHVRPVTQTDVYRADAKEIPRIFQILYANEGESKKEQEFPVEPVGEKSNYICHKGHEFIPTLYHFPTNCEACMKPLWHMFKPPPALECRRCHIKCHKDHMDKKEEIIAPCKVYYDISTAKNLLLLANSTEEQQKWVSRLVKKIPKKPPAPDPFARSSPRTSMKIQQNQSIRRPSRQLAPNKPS

SMILES | pIC50
CCCc1ccc(C(=O)NCc2nc(-c3ccncc3)n[nH]2)cc1 | < 5.30
Cc1ccc(F)cc1C(=O)NCc1nc(-c2ccncc2)n[nH]1 | < 5.30
CCCCCc1ccc(C(=O)NCc2nc(-c3ccncc3)n[nH]2)cc1 | < 5.30
COc1cc(OC)cc(C(=O)NCc2nc(-c3ccncc3)n[nH]2)c1 | < 5.30
O=C(NCc1nc(-c2ccncc2)n[nH]1)C1CCCCC1 | < 5.30
O=Cc1ccccc1OCC(=O)NCc1nc(-c2c[nH]c3ncccc23)n[nH]1 | < 5.30
O=C(C=Cc1cccc(O)c1)NCc1nc(-c2c[nH]c3ncccc23)n[nH]1 | < 5.30
O=C(C=Cc1ccccc1C(F)(F)F)NCc1nc(-c2c[nH]c3ncccc23)n[nH]1 | < 5.30
O=C(NCc1nc(-c2ccncc2)n[nH]1)c1ccc2c(c1)OCO2 | < 5.30
CC(C)(C)C(=O)NCc1nc(-c2c[nH]c3ncccc23)n[nH]1 | < 5.30
O=C(NCc1nc(-c2c[nH]c3ncccc23)n[nH]1)c1ccc(OCc2ccccc2)cc1 | < 5.30
O=C(NCc1nc(-c2ccncc2)n[nH]1)C(F)(F)F | < 5.30
O=S(=O)(NCc1nc(-c2ccncc2)n[nH]1)c1ccc(O)cc1 | < 5.30
O=C(NCc1nc(-c2c[nH]c3ncccc23)n[nH]1)c1ccc([N+](=O)[O-])c(O)c1 | < 5.30
CCCCc1ccc(C(=O)NCc2nc(-c3c[nH]c4ncccc34)n[nH]2)cc1 | < 5.30
O=C(NCc1nc(-c2c[nH]c3ncccc23)n[nH]1)c1cccc2ccccc12 | < 5.30
COc1cc(OC)c(C(=O)NCc2nc(-c3ccncc3)n[nH]2)cc1OC | < 5.30
CN(Cc1nc(-c2ccncc2)n[nH]1)C(=O)c1ccc(O)cc1O | < 5.30
COc1cc(OC)c(C(=O)NCc2nc(-c3c[nH]c4ncccc34)n[nH]2)cc1OC | < 5.30
CC(C)(C)OC(=O)NC(Cc1ccccc1)C(=O)NCc1nc(-c2ccncc2)n[nH]1 (configuration not stated) | < 5.30
CC(C)(C)C(=O)Oc1ccc(C(=O)NCc2nc(-c3ccncc3)n[nH]2)cc1 | < 5.30
Cc1ccccc1C(=O)NCc1nc(-c2ccncc2)n[nH]1 | < 5.30
COC1=C(O)C=CC(C=CC(=O)NCc2nc(-c3c[nH]c4ncccc34)n[nH]2)=CC1 | < 5.30
O=C(NCc1nc(-c2c[nH]c3ncccc23)n[nH]1)c1ccc(C(F)(F)F)cc1[N+](=O)[O-] | < 5.30
Cc1ccc(C(=O)NCc2nc(-c3c[nH]c4ncccc34)n[nH]2)cc1C | < 5.30
O=C(NCc1nc(-c2ccncc2)n[nH]1)c1ccccn1 | < 5.30
O=C(NCc1nc(-c2ccncc2)n[nH]1)c1cccc(Br)n1 | < 5.30
Cc1ccc(SCC(=O)NCc2nc(-c3ccncc3)n[nH]2)cc1 | < 5.30

SMILES | pIC50
O=C(NCc1nc(-c2c[nH]c3ncccc23)n[nH]1)c1cc(Cl)ccc1Cl | < 5.30
CC(C)(C)OC(=O)NCC(=O)NCc1nc(-c2ccncc2)n[nH]1 | < 5.30
O=C(NCc1nc(-c2c[nH]c3ncccc23)n[nH]1)c1c(F)cccc1Cl | < 5.30
O=C(NCc1nc(-c2c[nH]c3ncccc23)n[nH]1)c1ccccc1O | < 5.30
Cc1cccc(C(=O)NCc2nc(-c3ccncc3)n[nH]2)c1[N+](=O)[O-] | < 5.30
O=C(NCc1nc(-c2c[nH]c3ncccc23)n[nH]1)c1ccc2ccccc2c1O | < 5.30
CC(NC(=O)OC(C)(C)C)C(=O)NCc1nc(-c2ccncc2)n[nH]1 (configuration not stated) | < 5.30
CCCCc1ccc(C(=O)NCc2nc(-c3ccncc3)n[nH]2)cc1 | < 5.30
O=C(NCc1nc(-c2c[nH]c3ncccc23)n[nH]1)c1ccccn1 | < 5.30
COc1cc(OC)c(C(=O)NCc2nc(-c3c[nH]c4ncccc34)n[nH]2)c(OC)c1 | < 5.30
COc1cc(C(=O)NCc2nc(-c3ccncc3)n[nH]2)c([N+](=O)[O-])cc1OC | < 5.30
COc1ccc(OC)c(C(=O)NCc2nc(-c3ccncc3)n[nH]2)c1 | < 5.30
COc1ccc(Cl)cc1C(=O)NCc1nc(-c2c[nH]c3ncccc23)n[nH]1 | < 5.30
O=C(NCc1ncc(-c2ccncc2)s1)c1cccs1 | < 5.30
O=C(NCc1nc(-c2c[nH]c3ncccc23)n[nH]1)c1ccc([N+](=O)[O-])cc1Cl | < 5.30
CC(O)C(=O)NCc1nc(-c2c[nH]c3ncccc23)n[nH]1 (configuration not stated) | < 5.30
COc1cc(C(=O)NCc2nc(-c3c[nH]c4ncccc34)n[nH]2)c([N+](=O)[O-])cc1OC | < 5.30
Cc1ccc(C(=O)NCc2nc(-c3ccncc3)n[nH]2)cc1F | < 5.30
O=C(NCc1nc(-c2c[nH]c3ncccc23)n[nH]1)c1cccc(Oc2ccccc2)c1 | < 5.30
O=C(NCc1nc(-c2ccncc2)n[nH]1)c1cc(O)ccc1[N+](=O)[O-] | < 5.30
CC(C)C(NC(=O)OC(C)(C)C)C(=O)NCc1nc(-c2c[nH]c3ncccc23)n[nH]1 (configuration not stated) | < 5.30
O=Cc1ccccc1OCC(=O)NCc1nc(-c2ccncc2)n[nH]1 | < 5.30
Cc1cc(C)c(C(=O)NCc2nc(-c3c[nH]c4ncccc34)n[nH]2)c(C)c1 | < 5.30
CCC(C(=O)NCc1nc(-c2c[nH]c3ncccc23)n[nH]1)c1ccccc1 (configuration not stated) | < 5.30
CC(C)(C)OC(=O)N1CC(O)CC1C(=O)NCc1nc(-c2ccncc2)n[nH]1 (configuration not stated) | < 5.30
O=C(NCc1nc(-c2c[nH]c3ncccc23)n[nH]1)c1ccc(Cl)c(Br)c1 | < 5.30
O=C(NCc1nc(-c2ccncc2)n[nH]1)c1cc(Cl)ccn1 | < 5.30

The next lines start with the values.

pIC50 | SMILES
< 5.30 | CC(C)c1ccc(C(=O)NCc2nc(-c3ccncc3)n[nH]2)cc1
< 5.30 | Cn1cnc(C(=O)NCc2nc(-c3c[nH]c4ncccc34)n[nH]2)c1
< 5.30 | Cc1ccc(O)c(C(=O)NCc2nc(-c3ccncc3)n[nH]2)c1
< 5.30 | O=C(C=Cc1ccccc1F)NCc1nc(-c2ccncc2)n[nH]1
< 5.30 | Cc1ccccc1CC(=O)NCc1nc(-c2c[nH]c3ncccc23)n[nH]1
< 5.30 | COc1cc(C(=O)NCc2nc(-c3c[nH]c4ncccc34)n[nH]2)cc(Cl)n1
< 5.30 | CC(=O)c1ccccc1C(=O)NCc1nc(-c2ccncc2)n[nH]1
< 5.30 | O=C(NCc1nc(-c2ccncc2)n[nH]1)c1cccc(O)c1O
< 5.30 | O=C(NCc1nc(-c2c[nH]c3ncccc23)n[nH]1)c1ccncc1
< 5.30 | Cc1cc(C(=O)NCc2nc(-c3ccncc3)n[nH]2)cc(Cl)n1
< 5.30 | O=C(NCc1nc(-c2c[nH]c3ncccc23)n[nH]1)c1ccc2cc(O)ccc2c1
≥ 5.30 | COC(=O)c1ccc(C(=O)NCc2nc(-c3ccncc3)n[nH]2)cc1
< 5.30 | CC(C)(C)OC(=O)N1CCNC(C(=O)NCc2nc(-c3ccncc3)n[nH]2)C1 (configuration not stated)
< 5.30 | COc1cc(C(=O)NCc2nc(-c3c[nH]c4ncccc34)n[nH]2)cc(OC)c1OC
< 5.30 | CC(C)(C)C(=O)Oc1ccc(C(=O)NCc2nc(-c3ccncc3)n[nH]2)c(OC(=O)C(C)(C)C)c1
≥ 5.30 | O=C(NCc1c[nH]c(-c2ccncc2)n1)c1ccc(O)cc1O

pIC50 | SMILES
< 5.30 | O=C(Cc1ccc(Br)cc1)NCc1nc(-c2c[nH]c3ncccc23)n[nH]1
≥ 5.30 | O=C(O)c1ccc(C(=O)NCc2nc(-c3ccncc3)n[nH]2)cc1
< 5.30 | O=Cc1ccccc1C(=O)NCc1nc(-c2ccncc2)n[nH]1
< 5.30 | Cc1ccc(C(=O)NCc2nc(-c3ccncc3)n[nH]2)cc1Br
< 5.30 | O=C(NCc1nc(-c2c[nH]c3ncccc23)n[nH]1)c1ccccc1Cl
≥ 5.30 | Cc1ccc(C(=O)NCc2nc(-c3ccncc3)n[nH]2)s1
≥ 5.30 | CC(=O)Oc1ccc(C(=O)NCc2nc(-c3ccncc3)n[nH]2)c(O)c1
≥ 5.30 | CC(NC(=O)c1ccc(O)cc1O)c1nc(-c2ccncc2)n[nH]1 (configuration not stated)
≥ 5.30 | O=C(NCc1nc(-c2ccncc2)n[nH]1)c1ccc2cc(O)ccc2c1
≥ 5.30 | CC(C)C(=O)Oc1ccc(C(=O)NCc2nc(-c3ccncc3)n[nH]2)c(O)c1
≥ 5.30 | CC(C)(C)OC(=O)NCCCC(NC(=O)c1ccc(O)cc1O)c1nc(-c2ccncc2)n[nH]1 (configuration not stated)
≥ 5.30 | Cc1cccc(C(=O)NCc2nc(-c3ccncc3)n[nH]2)c1O
≥ 5.30 | O=C(NCc1nc(-c2ccncc2)n[nH]1)c1cccc(Cl)c1[N+](=O)[O-]
≥ 5.30 | O=C(NCc1nc(-c2ccncc2)n[nH]1)c1ccccc1O
≥ 5.30 | O=C(NCc1nc(-c2ccncc2)n[nH]1)c1cc2ccccc2s1
≥ 5.30 | Clc1ccc(SCc2n[nH]c(-c3ccncc3)n2)cc1
